Reference: ChEMBL document CHEMBL4613209, “Quinolone hybrids and their anti-cancer activities: An overview” (Eur J Med Chem, 2019)

Columns and labels:
Assay type in all cases: functional, cell-based
[1] = tested on: HCT-116; test: Cytotoxicity against human HCT116 cells assessed as reduction in cell viability by SRB assay
[2] = tested on: NCI-H460; test: Cytotoxicity against human NCI-H460 cells assessed as reduction in cell viability by SRB assay
[3] = tested on: U-251; test: Cytotoxicity against human U251 cells assessed as reduction in cell viability by SRB assay
[4] = tested on: L1210; test: Cytotoxicity against mouse L1210 cells assessed as reduction in cell viability
[5] = tested on: SMMC-7721; test: Cytotoxicity against human SMMC7721 cells assessed as reduction in cell viability
[6] = tested on: HL-60; test: Cytotoxicity against human HL60 cells assessed as reduction in cell viability
[7] = tested on: Hep 3B2; test: Cytotoxicity against human Hep3B cells assessed as reduction in cell viability
[8] = tested on: CAPAN-1; test: Cytotoxicity against human Capan1 cells assessed as reduction in cell viability
[9] = tested on: HL-60; test: Antiproliferative activity against human HL60 cells after 72 hrs by MTT assay; details: HL-60, 72 h
[10] = tested on: CHO; test: Cytotoxicity against CHO cells assessed as reduction in cell viability; details: Cricetulus griseus
[11] = tested on: CAPAN-1; test: Cytotoxicity against human Capan1 cells assessed as reduction in cell viability by MTT assay
[12] = tested on: L1210; test: Cytotoxicity against mouse L1210 cells assessed as reduction in cell viability by MTT assay
[13] = tested on: MCF7; test: Cytotoxicity against human MCF7 cells assessed as reduction in cell viability by MTT assay
[14] = tested on: HL-60; test: Cytotoxicity against human HL60 cells assessed as reduction in cell viability by MTT assay
[15] = tested on: L1210; test: Antiproliferative activity against mouse L1210 cells by MTT assay
[16] = tested on: SK-MEL3; test: Cytotoxicity against human SK-MEL-3 cells assessed as reduction in cell viability by MTT assay
[17] = tested on: Hep 3B2; test: Cytotoxicity against human Hep3B cells assessed as reduction in cell viability by MTT assay
[18] = tested on: SMMC-7721; test: Antiproliferative activity against human SMMC7721 cells by MTT assay
[19] = tested on: A549; test: Antiproliferative activity against human A549 cells after 72 hrs by MTT assay; details: A549, 72 h
[20] = tested on: HL-60; test: Antiproliferative activity against human HL60 cells by MTT assay
[21] = tested on: SMMC-7721; test: Cytotoxicity against human SMMC7721 cells assessed as reduction in cell viability by MTT assay
[22] = tested on: A-431; test: Cytotoxicity against human A431 cells assessed as reduction in cell viability by MTT assay
[23] = tested on: SW480; test: Cytotoxicity against human SW480 cells assessed as reduction in cell viability by MTT assay
[24] = tested on: EJ; test: Cytotoxicity against human EJ cells assessed as reduction in cell viability by MTT assay
[25] = tested on: A549; test: Antiproliferative activity against human A549 cells by CCK8 assay
[26] = tested on: HeLa; test: Antiproliferative activity against human HeLa cells by CCK8 assay

SMILES | IC50 [1] [µM] | IC50 [2] [µM] | IC50 [3] [µM] | IC50 [6] [µM] | IC50 [7] [µM] | IC50 [8] [µM] | also measured
O=C(CCCCCn1cc(C(=O)Nc2nc3ccccc3s2)c(=O)c2ccccc21)NO | 0.6 to 1 | 0.6 to 1 | 0.6 to 1 | – | – | – | –
COc1ccc2c(c1)c(=O)c(C(=O)Nc1nc3ccccc3s1)cn2CCCCCC(=O)NO | 0.6 to 16 | 0.6 to 16 | 0.6 to 16 | – | – | – | –
CCn1cc(-c2nnc(SC/C(=N/NC(N)=S)c3ccc(F)cc3)[nH]2)c(=O)c2cc(F)c(N3CCN(C)CC3)cc21 | – | – | – | 2.7 to 8.6 | – | – | IC50 [4]: 2.7 to 8.6 µM; IC50 [5]: 2.7 to 8.6 µM
O=c1[nH]c2ccccc2c2n[nH]c(/C=C/c3ccccc3)c12 | 0.16 to 0.3 | 0.16 to 0.3 | 0.16 to 0.3 | – | – | – | –
CCn1cc(-c2nnc(SC/C(=N/NC(N)=S)c3ccc(O)cc3)[nH]2)c(=O)c2cc(F)c(N3CCN(C)CC3)cc21 | – | – | – | 2.7 to 8.6 | – | – | IC50 [4]: 2.7 to 8.6 µM; IC50 [5]: 2.7 to 8.6 µM
O=C(CCCCCn1cc(C(=O)Nc2nccs2)c(=O)c2ccccc21)NO | 5 to 16 | 5 to 16 | 5 to 16 | – | – | – | –
O=C(CCCCCn1cc(C(=O)Nc2nc3ccccc3s2)c(=O)c2cc(F)ccc21)NO | 0.6 to 16 | 0.6 to 16 | 0.6 to 16 | – | – | – | –
O=c1[nH]c2ccccc2c2n[nH]c(-c3cn(-c4ccccc4)nc3-c3ccccc3)c12 | 0.16 to 0.3 | 0.16 to 0.3 | 0.16 to 0.3 | – | – | – | –
CCn1cc(-c2nnc(SC/C(=N/NC(N)=S)c3ccccc3OC)[nH]2)c(=O)c2cc(F)c(N3CCN(C)CC3)cc21 | – | – | – | 2.7 to 27.6 | – | – | IC50 [4]: 2.7 to 27.6 µM; IC50 [5]: 2.7 to 27.6 µM
CN1CCN(c2cc3c(cc2F)c(=O)c(-c2nc4s/c(=C\c5ccc(Cl)cc5)c(=O)n4n2)cn3C2CC2)CC1 | – | – | – | > 10 | > 10 | > 10 | –
CCn1cc(-c2nnc(SC/C(=N/NC(N)=S)c3ccc(OC)cc3)[nH]2)c(=O)c2cc(F)c(N3CCN(C)CC3)cc21 | – | – | – | 2.7 to 27.6 | – | – | IC50 [4]: 2.7 to 27.6 µM; IC50 [5]: 2.7 to 27.6 µM
CN1CCN(c2cc3c(cc2F)c(=O)c(-c2nc4s/c(=C\c5cccc(C(=O)O)c5)c(=O)n4n2)cn3C2CC2)CC1 | – | – | – | 0.3 to 8.4 | 0.3 to 8.4 | 0.3 to 8.4 | –
O=c1[nH]c2ccccc2c2nn(-c3ccccc3)c(-c3cn(-c4ccccc4)nc3-c3ccccc3)c12 | 0.16 to 0.3 | 0.16 to 0.3 | 0.16 to 0.3 | – | – | – | –
CCn1cc(-c2nnc(SC/C(=N/NC(N)=S)c3ccc4c(c3)OCO4)[nH]2)c(=O)c2cc(F)c(N3CCN(C)CC3)cc21 | – | – | – | 2.7 to 27.6 | – | – | IC50 [4]: 2.7 to 27.6 µM; IC50 [5]: 2.7 to 27.6 µM
CN1CCN(c2cc3c(cc2F)c(=O)c(-c2nc4s/c(=C\c5cccc(S(N)(=O)=O)c5)c(=O)n4n2)cn3C2CC2)CC1 | – | – | – | 0.3 to 8.4 | 0.3 to 8.4 | 0.3 to 8.4 | –
CCn1cc(-c2nnc(SC/C(=N/NC(N)=S)c3ccccc3)[nH]2)c(=O)c2cc(F)c(N3CCN(C)CC3)cc21 | – | – | – | 2.7 to 27.6 | – | – | IC50 [4]: 2.7 to 27.6 µM; IC50 [5]: 2.7 to 27.6 µM
Cn1nc(-c2ccccc2)cc1NC(=O)c1cn(CCCCCC(=O)NO)c2ccccc2c1=O | 0.6 to 16 | 0.6 to 16 | 0.6 to 16 | – | – | – | –
CN1CCN(c2cc3c(cc2F)c(=O)c(-c2nc4s/c(=C\c5cccc(C#N)c5)c(=O)n4n2)cn3C2CC2)CC1 | – | – | – | > 10 | > 10 | > 10 | –
CCn1cc(-c2nnc(SC/C(=N/NC(N)=S)c3ccc(OC)c(OC)c3)[nH]2)c(=O)c2cc(F)c(N3CCN(C)CC3)cc21 | – | – | – | 2.7 to 27.6 | – | – | IC50 [4]: 2.7 to 27.6 µM; IC50 [5]: 2.7 to 27.6 µM
CN1CCN(c2cc3c(cc2F)c(=O)c(-c2nc4s/c(=C\c5ccc([N+](=O)[O-])cc5)c(=O)n4n2)cn3C2CC2)CC1 | – | – | – | 0.3 to 8.4 | 0.3 to 8.4 | 0.3 to 8.4 | –

SMILES | IC50 [1] [µM] | IC50 [2] [µM] | IC50 [3] [µM] | IC50 [6] [µM] | IC50 [7] [µM] | IC50 [8] [µM] | also measured
Cc1csc(NC(=O)c2cn(CCCCCC(=O)NO)c3ccccc3c2=O)n1 | 2.43 to 2.9 | 2.43 to 2.9 | 2.43 to 2.9 | – | – | – | –
COc1ccc(/C=c2\sc3nc(-c4cn(C5CC5)c5cc(N6CCN(C)CC6)c(F)cc5c4=O)nn3c2=O)cc1 | – | – | – | > 10 | > 10 | > 10 | –
COC(=O)c1cccc(/C=c2\sc3nc(-c4cn(C5CC5)c5cc(N6CCN(C)CC6)c(F)cc5c4=O)nn3c2=O)c1 | – | – | – | 0.3 to 8.4 | 0.3 to 8.4 | 0.3 to 8.4 | –
CN1CCN(c2cc3c(cc2F)c(=O)c(-c2nc4s/c(=C\c5ccc(C#N)cc5)c(=O)n4n2)cn3C2CC2)CC1 | – | – | – | > 10 | > 10 | > 10 | –
COc1ccc2c(c1)c(=O)c(C(=O)Nc1cc(-c3ccccc3)nn1C)cn2CCCCCC(=O)NO | 0.6 to 16 | 0.6 to 16 | 0.6 to 16 | – | – | – | –
Cc1ccc(/C=c2\sc3nc(-c4cn(C5CC5)c5cc(N6CCN(C)CC6)c(F)cc5c4=O)nn3c2=O)cc1 | – | – | – | > 10 | > 10 | > 10 | –
CC(=O)n1nc2c(c1-c1cccs1)c(=O)[nH]c1ccccc12 | 0.16 to 0.3 | 0.16 to 0.3 | 0.16 to 0.3 | – | – | – | –
CCn1cc(-c2nnc(SC/C(=N/NC(N)=S)c3ccccc3O)[nH]2)c(=O)c2cc(F)c(N3CCN(C)CC3)cc21 | – | – | – | 2.7 to 8.6 | – | – | IC50 [4]: 2.7 to 8.6 µM; IC50 [5]: 2.7 to 8.6 µM
CN1CCN(c2cc3c(cc2F)c(=O)c(-c2nc4s/c(=C\c5ccc(C(=O)O)cc5)c(=O)n4n2)cn3C2CC2)CC1 | – | – | – | 0.3 to 8.4 | 0.3 to 8.4 | 0.3 to 8.4 | –
CCn1cc(-c2nnc(SC/C(=N/NC(N)=S)c3ccc(O)c(OC)c3)[nH]2)c(=O)c2cc(F)c(N3CCN(C)CC3)cc21 | – | – | – | 2.7 to 8.6 | – | – | IC50 [4]: 2.7 to 8.6 µM; IC50 [5]: 2.7 to 8.6 µM
CN1CCN(c2cc3c(cc2F)c(=O)c(-c2nc4s/c(=C\c5cccc([N+](=O)[O-])c5)c(=O)n4n2)cn3C2CC2)CC1 | – | – | – | 0.3 to 8.4 | 0.3 to 8.4 | 0.3 to 8.4 | –
CCn1cc(-c2nnc(SC/C(=N/NC(N)=S)c3ccc(C)cc3)[nH]2)c(=O)c2cc(F)c(N3CCN(C)CC3)cc21 | – | – | – | 2.7 to 27.6 | – | – | IC50 [4]: 2.7 to 27.6 µM; IC50 [5]: 2.7 to 27.6 µM
COC(=O)c1ccc(/C=c2\sc3nc(-c4cn(C5CC5)c5cc(N6CCN(C)CC6)c(F)cc5c4=O)nn3c2=O)cc1 | – | – | – | 0.3 to 8.4 | 0.3 to 8.4 | 0.3 to 8.4 | –
COc1ccccc1/C=c1\sc2nc(-c3cn(C4CC4)c4cc(N5CCN(C)CC5)c(F)cc4c3=O)nn2c1=O | – | – | – | > 10 | > 10 | > 10 | –
CC(=O)n1cc2c(=O)[nH]c3ccccc3c2n1 | 0.16 to 0.3 | 0.16 to 0.3 | 0.16 to 0.3 | – | – | – | –
COc1ccc(-c2c3c(=O)[nH]c4ccccc4c3nn2C(C)=O)cc1 | 0.16 to 0.3 | 0.16 to 0.3 | 0.16 to 0.3 | – | – | – | –
O=C(O)c1cn(C2CC2)c2cc(N3CCNCC3)c(F)cc2c1=O [CIPROFLOXACIN] | – | – | – | > 150 | – | – | IC50 [9]: > 0.302 µM; IC50 [10]: > 150 µM; IC50 [11]: > 100 µM; IC50 [12]: > 100 µM; IC50 [13]: > 100 µM; IC50 [14]: > 100 µM; IC50 [4]: > 150 µM; IC50 [15]: ≥ 100 µM; IC50 [16]: 137 to 238 µM; IC50 [17]: > 100 µM; IC50 [18]: ≥ 100 µM; IC50 [19]: > 0.302 µM; IC50 [20]: ≥ 100 µM; IC50 [21]: 137 to 238 µM; IC50 [22]: 137 to 238 µM; IC50 [23]: 137 to 238 µM; IC50 [24]: 137 to 238 µM
O=c1[nH]cc(F)c(=O)[nH]1 [FLUOROURACIL] | 0.54 | 0.54 | 0.54 | – | – | – | –
O=C(CCCCCCC(=O)Nc1ccccc1)NO [VORINOSTAT] | – | – | – | – | – | – | IC50 [25]: 2.9 to 6.4 µM; IC50 [26]: 2.9 to 6.4 µM
